EPA's ToxValDB 9.5

What was measured:
Labeo boga = conditions: whole body, M/F
Monkey = conditions: oral, capsule, Cynomolgus; for NOEL: short-term, duration: 29 days, blood: basophils + blood: eosinophils + blood: lymphocytes + blood: monocytes + blood: reticulocytes + blood: segmented neutrophils + blood…
Bird = conditions: reproductive, in ovo, M/F, White leghorn chicken, generation: F1
Mus musculus = conditions: oral
[1] = chronic, duration: 26 weeks, M, lymphocyte count (%) (Day 182)
[2] = developmental, duration: 16 days, gavage, F, B6C3F1, generation: F1, F1: spleen: spleen B220+ cells + F1: spleen: Splenic NK cell activity
[3] = developmental, duration: 16 days, gavage, M, B6C3F1, generation: F1, F1: IgM antibody titer (SRBC) + F1: thymus: thymus CD3+ cells + F1: thymus: thymus CD4+ cells
[4] = developmental, duration: 16 days, gavage, M, B6C3F1, generation: F1, F1: spleen: Splenic NK cell activity
[5] = short-term, duration: 7 days, gavage, M, BALB/c, spleen: lymphocyte proliferation (ConA)
[6] = short-term, duration: 7 days, gavage, M, BALB/c, spleen: spleen CD3+ cells (cells normalized to control)
[7] = short-term, duration: 7 days, gavage, M, C57BL/6, serum corticosterone + spleen: IFN-gamma levels + spleen: IL-2 secreting splenocytes + spleen: spleen: relative weight + thymus: thymus: …
[8] = short-term, duration: 7 days, gavage, M, C57BL/6, serum corticosterone + spleen: lymphocyte proliferation (LPS) + spleen: spleen cellularity + spleen: spleen: relative weight + spleen: …
[9] = short-term, duration: 7 days, gavage, M, C57BL/6, spleen: apoptotic splenocytes + spleen: spleen - mitochondrial membrane Rh123 fluorescence + spleen: spleen - ROS-DCF fluorescence + spleen…
[10] = short-term, duration: 7 days, gavage, M, C57BL/6, spleen: splenic DN (CD4-CD8-) cells
[11] = short-term, duration: 7 days, gavage, M, C57BL/6, spleen: splenocytes - CAT activity + spleen: splenocytes - GST activity + splenic lymphocyte protein - bax + splenic lymphocyte protein - …
[12] = short-term, duration: 10 days, diet, M, 129/SV, spleen: spleen CD19+ cells + spleen: spleen CD4+ cells + spleen: spleen CD8+ cells + spleen: spleen cellularity + spleen: spleen Pan-NK+ …
[13] = short-term, duration: 10 days, diet, M, C57BL/6, bone marrow: bone marrow cellularity + bone marrow: bone marrow: no. of CD19+ B-lymphoid cells + bone marrow: bone marrow: no. of Gr1+CD11b…
[14] = short-term, duration: 10 days, diet, M, C57BL/6, spleen: spleen CD19+ cells + spleen: spleen CD4+ cells + spleen: spleen CD8+ cells + spleen: spleen cellularity + spleen: spleen NK1.1+ …
[15] = short-term, duration: 10 days, diet, M, spleen: spleen: absolute weight + thymus: thymus CD4+ cells + thymus: thymus CD8+ cells + thymus: thymus cellularity + thymus: thymus DP (…
[16] = short-term, duration: 12 days, gavage, M, C57BL/6, body mass after exposure + spleen: spleen CD8+ cells + spleen: spleen: relative weight + thymus: thymus: relative weight
[17] = short-term, duration: 12 days, gavage, M, C57BL/6, spleen: spleen CD4+ cells + spleen: spleen cellularity
[18] = short-term, duration: 14 days, gavage, F, BALB/c, spleen: spleen: relative weight + thymus: percentage of apoptotic cells in thymus + thymus: thymus: relative weight
[19] = short-term, duration: 14 days, gavage, M, BALB/c, spleen: lymphocyte proliferation (ConA)

O=S(=O)(O)C(F)(F)C(F)(F)C(F)(F)C(F)(F)C(F)(F)C(F)(F)C(F)(F)C(F)(F)F [Perfluorooctanesulfonic acid]
NOEL (Labeo boga; short-term, duration: 7 day, Oryzias Melastigma, mRNA level for C8 gene + mRNA level for CAT gene + mRNA level for CCL20 gene + mRNA level for Cd3 gene + mRNA level for GPx gene): 1 mg/L
LOEL (Labeo boga; short-term, duration: 7 day, Oryzias Melastigma, mRNA level for IL1b gene): 0.25 mg/L
LOEL (Labeo boga; short-term, duration: 10 day, Medaka, relative IL-1-beta mRNA expression + relative IL-8 mRNA expression + relative TNF-alpha mRNA expression): 1 mg/L
NOEL (Labeo boga; short-term, duration: 16 day, Thicklip grey mullet, relative apoA1 expression in liver (Day 2) + relative cc3 expression in liver (Day 16) + relative cc3 expression in liver (Day 2) + relative…): 2 ppm
LOEL (Labeo boga; short-term, duration: 16 day, Thicklip grey mullet, relative apoA1 expression in liver (Day 16) + relative fabp expression in liver (Day 2)): 2 ppm
LOEL (Labeo boga; short-term, duration: 21 day, Atlantic Salmon, cortisol): 0.1 mg/L
LOEL (Labeo boga; subchronic, duration: 48 day, Atlantic Salmon, cortisol): 0.1 mg/L
NOEL (Labeo boga; subchronic, duration: 48 day, Atlantic Salmon, fresh weight + length + thymus: thymus somatic index + thymus: thymus volume): 0.1 mg/L
LOEL (Labeo boga; subchronic, duration: 56 day, Atlantic Salmon, cortisol): 0.1 mg/L
NOEL (TAD) (Monkey; chronic, duration: 26 weeks, F, lymphocyte count (Day 182) + lymphocyte count (LYMPH) (Day 182) + segmented neutrophil count (Day 182) + segmented neutrophil count (N-SEG…): 115 mg/kg-day
LOEL (TAD) (Monkey; [1]): 115 mg/kg-day
NOEL (TAD) (Monkey; [1]): 22.9 mg/kg-day
NOEL (TAD) (Monkey; chronic, duration: 26 weeks, M, lymphocyte count (LYMPH) (Day 182) + segmented neutrophil count (%) (Day 182) + segmented neutrophil count (N-SEG) (Day 182)): 115 mg/kg-day
NOEL (Monkey; F): 2 mg/kg-day
NOEL (Monkey; M): 2 mg/kg-day
LOEL (mg ion/kg egg) (Bird; F1: IgM and IgY antibody titer (SRBC) + F1: plasma lysozyme activity + F1: spleen: spleen: relative weight): 0.93
NOEL (mg ion/kg egg) (Bird; F1: IgM antibody titer (SRBC) + F1: IgY antibody titer (SRBC) + F1: lymph node: normalized bursa mass + F1: PHA skin test (DTH response) + …): 4.6
NOEL (Mus musculus; developmental, duration: 16 days, gavage, F, B6C3F1, generation: F1, F1: body weight (4 weeks of age) + F1: body weight (8 weeks of age) + F1: IgM antibody titer (SRBC) + F1: spleen: spleen CD3+ cells + F1: …): 5 mg/kg-day
LOEL (Mus musculus; [2]): 5 mg/kg-day
NOEL (Mus musculus; [2]): 1 mg/kg-day
LOEL (Mus musculus; [3]): 5 mg/kg-day
NOEL (Mus musculus; [3]): 1 mg/kg-day
NOEL (Mus musculus; developmental, duration: 16 days, gavage, M, B6C3F1, generation: F1, F1: body weight (4 weeks of age) + F1: body weight (8 weeks of age) + F1: spleen: spleen B220+ cells + F1: spleen: spleen CD3+ cells + F1: …): 5 mg/kg-day
LOEL (Mus musculus; [4]): 1 mg/kg-day
NOEL (Mus musculus; [4]): 0.1 mg/kg-day
NOEL (Mus musculus; reproduction developmental, diet, M/F, BALB/c, generation: F1, F1: airway MCh sensitivity + F1: airway resistance (at 25 mg/mL methacholine) + F1: lung: BALF inflammatory cell counts: eosinophils + F1: …): 4 ppm
LOEL (Mus musculus; reproduction developmental, diet, M/F, BALB/c, generation: F1, F1: airway MCh sensitivity + F1: lung: BALF inflammatory cell counts: macrophages + F1: lung: BALF inflammatory cell counts: total cell …): 4 ppm
NOEL (Mus musculus; short-term, duration: 3 weeks, gavage, F, BALB/c, IgM antibody level (TNP 1:200) + IgM antibody level (TNP 1:50)): 20 mg/kg-day
LOEL (Mus musculus; short-term, duration: 7 days, gavage, F, BALB/c, Peripheral blood phagocytosis (HEMA) + spleen: lymphocyte proliferation (ConA) + spleen: spleen cellularity + spleen: Splenic NK cell …): 20 mg/kg-day
NOEL (Mus musculus; short-term, duration: 7 days, gavage, F, BALB/c, spleen: lymphocyte proliferation (LPS) + spleen: spleen CD4+ cells + spleen: spleen CD49b+ cells + spleen: spleen CD8+ cells + spleen: …): 20 mg/kg-day
LOEL (Mus musculus; [5]): 10 mg/kg-day
NOEL (Mus musculus; [5]): 5 mg/kg-day
LOEL (Mus musculus; [6]): 5 mg/kg-day
NOEL (Mus musculus; [6]): 2.5 mg/kg-day
NOEL (Mus musculus; short-term, duration: 7 days, gavage, M, BALB/c, spleen: spleen CD3+ cells + spleen: spleen CD3+CD4+ cells + spleen: spleen CD3+CD4+ cells (cells normalized to control) + spleen: spleen CD3…): 10 mg/kg-day
LOEL (Mus musculus; short-term, duration: 7 days, gavage, M, C57BL/6, IgM antibody-secreting cells (SRBC) + spleen: lymphocyte proliferation (ConA)): 5 mg/kg-day
LOEL (Mus musculus; [7]): 20 mg/kg-day
NOEL (Mus musculus; [7]): 5 mg/kg-day
LOEL (Mus musculus; [8]): 20 mg/kg-day
NOEL (Mus musculus; [8]): 5 mg/kg-day
LOEL (Mus musculus; short-term, duration: 7 days, gavage, M, C57BL/6, spleen: IL-4 levels + Total serum IgG level + Total serum IgM level): 5 mg/kg-day
NOEL (Mus musculus; short-term, duration: 7 days, gavage, M, C57BL/6, spleen: IL-10 secreting splenocytes): 20 mg/kg-day
LOEL (Mus musculus; [9]): 5 mg/kg-day
NOEL (Mus musculus; [9]): 1 mg/kg-day
NOEL (Mus musculus; short-term, duration: 7 days, gavage, M, C57BL/6, spleen: spleen: relative weight + thymus: thymus: relative weight): 10 mg/kg-day
LOEL (Mus musculus; [10]): 40 mg/kg-day
NOEL (Mus musculus; [10]): 20 mg/kg-day
NOEL (Mus musculus; short-term, duration: 7 days, gavage, M, C57BL/6, spleen: splenic DP (CD4+CD8+) cells): 40 mg/kg-day
LOEL (Mus musculus; [11]): 10 mg/kg-day
NOEL (Mus musculus; [11]): 5 mg/kg-day
LOEL (Mus musculus; [12]): 0.02%
NOEL (Mus musculus; [12]): 0.005%
NOEL (Mus musculus; short-term, duration: 10 days, diet, M, C57BL/6, blood serum: IL-6 levels (+LPS in vivo) + blood serum: TNF-alpha levels + blood serum: TNF-alpha levels (+LPS in vivo) + bone marrow: IL-6 …): 0.02%
LOEL (Mus musculus; short-term, duration: 10 days, diet, M, C57BL/6, blood serum: IL-6 levels + bone marrow: IL-6 levels (+ LPS in vitro) + bone marrow: IL-6 levels (+ LPS in vivo) + bone marrow: percent …): 0.02%
LOEL (Mus musculus; [13]): 0.02%
NOEL (Mus musculus; [13]): 0.002%
NOEL (Mus musculus; short-term, duration: 10 days, diet, M, C57BL/6, bone marrow: bone marrow: no. of early mature CD19+CD138-IgM+ B cells): 0.02%
LOEL (Mus musculus; short-term, duration: 10 days, diet, M, C57BL/6, intrahepatic immune cells: TER119 (erythroid progenitor) + liver: IFN-gamma levels + liver: IL-4 levels + liver: TNF-alpha levels): 0.005%
NOEL (Mus musculus; short-term, duration: 10 days, diet, M, C57BL/6, intrahepatic immune cells: all leukocytes (CD45+) + intrahepatic immune cells: B cells (CD19+) + intrahepatic immune cells: CD138 (plasma …): 0.005%
LOEL (Mus musculus; short-term, duration: 10 days, diet, M, C57BL/6, liver: IFN-gamma levels + liver: IFN-gamma levels (+Con A) + liver: IL-4 levels + liver: IL-4 levels (+Con A) + liver: TNF-alpha levels + …): 0.004%
LOEL (Mus musculus; [14]): 0.02%
NOEL (Mus musculus; [14]): 0.005%
NOEL (Mus musculus; short-term, duration: 10 days, diet, M, spleen: spleen CD19+ cells + spleen: spleen CD4+ cells + spleen: spleen CD8+ cells + spleen: spleen cellularity + spleen: spleen Pan-NK+ …): 0.02%
LOEL (Mus musculus; [15]): 0.02%
NOEL (Mus musculus; [15]): 0.005%
LOEL (Mus musculus; [16]): 10 mg/kg-day
NOEL (Mus musculus; [16]): 5 mg/kg-day
LOEL (Mus musculus; [17]): 20 mg/kg-day
NOEL (Mus musculus; [17]): 10 mg/kg-day
LOEL (Mus musculus; [18]): 20 mg/kg-day
NOEL (Mus musculus; [18]): 5 mg/kg-day
NOEL (Mus musculus; short-term, duration: 14 days, gavage, M, BALB/c, spleen mRNA expression of IL-1Beta + thymus mRNA expression of IL-1Beta + thymus: percentage of apoptotic cells in thymus + thymus: thymus: …): 20 mg/kg-day
LOEL (Mus musculus; [19]): 10 mg/kg-day
NOEL (Mus musculus; [19]): 5 mg/kg-day
LOEL (Mus musculus; short-term, duration: 14 days, gavage, M, BALB/c, spleen: spleen CD3+ cells (cells normalized to control) + spleen: spleen CD3+CD4+ cells (cells normalized to control) + spleen: spleen CD3+…): 2.5 mg/kg-day
